The values that follow come from patent US20060074243A1, “Hydroxamic acid and amide compounds and their use as protease inhibitors” (Pharmacia Corporation, priority 2002, published 2006).

Common to all, as to test: In vitro MMP inhibition analysis (fluorogenic peptide substrate cleavage), Ki
Common to all, as to type: biochemical
What all share (conditions): Table 2

Assay [1] addresses T1, Human recombinant MMP-1 (Homo sapiens, UniProt P03956).
T1 construct: made in house; host or cells: MMP-1-transfected HT-1080 cells (spent media)
T1 sequence (P03956 100-469): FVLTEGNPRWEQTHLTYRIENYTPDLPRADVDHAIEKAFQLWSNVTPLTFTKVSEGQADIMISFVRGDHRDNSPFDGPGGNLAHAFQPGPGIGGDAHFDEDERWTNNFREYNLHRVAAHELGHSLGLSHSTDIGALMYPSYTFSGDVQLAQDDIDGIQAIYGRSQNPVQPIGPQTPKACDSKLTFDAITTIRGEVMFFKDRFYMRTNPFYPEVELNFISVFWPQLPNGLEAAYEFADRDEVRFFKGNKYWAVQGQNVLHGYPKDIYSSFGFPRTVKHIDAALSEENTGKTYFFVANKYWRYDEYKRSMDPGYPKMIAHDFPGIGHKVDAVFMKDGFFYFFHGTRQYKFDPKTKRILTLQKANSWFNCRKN
Put shortly: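 APMA- or trypsin-activated recombinant human MMP-1 (purified from transfected HT-1080 medium) with 4 μM MCA/Dpa quenched fluorogenic peptide, 1 h at room temperature in Tris/NaCl/CaCl2 buffer pH 7.5; fluorescence ex 330/em 420 nm. Ki from Morrison-equation fit of rates, substrate at or below Km, uncorrected.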

Assay [2] deals with T2, Human recombinant MMP-2 (Homo sapiens, UniProt P08253).
T2 construct: made in house; host or cells: MMP-2-transfected p2AHT2 cells
T2 sequence (P08253 110-660): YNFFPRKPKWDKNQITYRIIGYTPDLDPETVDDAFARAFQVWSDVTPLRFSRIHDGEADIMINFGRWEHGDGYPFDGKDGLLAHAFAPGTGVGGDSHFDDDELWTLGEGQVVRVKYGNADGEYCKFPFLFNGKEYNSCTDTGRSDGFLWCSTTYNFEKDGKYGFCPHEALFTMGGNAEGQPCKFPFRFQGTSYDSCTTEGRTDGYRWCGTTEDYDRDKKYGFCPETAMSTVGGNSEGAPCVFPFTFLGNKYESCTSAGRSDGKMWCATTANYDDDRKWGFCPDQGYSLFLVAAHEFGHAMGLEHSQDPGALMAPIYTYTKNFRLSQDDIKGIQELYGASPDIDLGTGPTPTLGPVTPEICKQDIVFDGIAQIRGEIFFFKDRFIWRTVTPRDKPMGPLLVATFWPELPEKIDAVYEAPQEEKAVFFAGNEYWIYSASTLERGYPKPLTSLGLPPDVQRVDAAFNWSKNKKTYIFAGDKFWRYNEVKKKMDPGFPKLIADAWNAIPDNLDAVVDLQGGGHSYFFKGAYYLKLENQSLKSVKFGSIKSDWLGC
The gist of the method: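 Human recombinant MMP-2 from transfected p2AHT2 cells was activated with APMA or trypsin and incubated 1 h at room temperature with compounds and 4 μM MCA-RPLGL(Dpa)ARER-NH2. Buffer was pH 7.5 Tris/NaCl/CaCl2, and fluorescence was read at ex 330/em 420 nm. Ki was fitted by Morrison's equation without substrate correction.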

Assay [3] concerns the target T3, Human recombinant MMP-9 (Homo sapiens, UniProt P14780).
T3 construct: made in house; host or cells: MMP-9-transfected HT1080 cells (spent media)
The gist of the method:
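Recombinant MMP-9 purified from transfected HT1080 cell media, activated with APMA, trypsin or recombinant MMP-3, assayed in Tris buffer pH 7.5 with CaCl2 and 4 μM fluorogenic MCA/Dpa peptide, 1 h at room temperature (ex 330/em 420 nm). Ki from Morrison-equation regression of velocity; substrate at or below Km, uncorrected.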

Assay [4] concerns the target T4, Human recombinant MMP-14 (Homo sapiens, UniProt P50281).
T4 construct: The catalytic domain enzyme was expressed in E. coli inclusion bodies, solubilized in urea; made in house
The gist of the method: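 Refolded catalytic domain of MMP-14 expressed in E. coli, activated with APMA or trypsin, incubated 1 h at room temperature with 4 μM MCA-peptide substrate in Tris buffer pH 7.5 with CaCl2. Cleavage rate followed by fluorescence (ex 330/em 420 nm). Ki from Morrison-equation fit; substrate at or below Km, so no substrate correction.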

Bounds are passed on as bounds.

T3 sequence (P14780 107-707 limits assumed): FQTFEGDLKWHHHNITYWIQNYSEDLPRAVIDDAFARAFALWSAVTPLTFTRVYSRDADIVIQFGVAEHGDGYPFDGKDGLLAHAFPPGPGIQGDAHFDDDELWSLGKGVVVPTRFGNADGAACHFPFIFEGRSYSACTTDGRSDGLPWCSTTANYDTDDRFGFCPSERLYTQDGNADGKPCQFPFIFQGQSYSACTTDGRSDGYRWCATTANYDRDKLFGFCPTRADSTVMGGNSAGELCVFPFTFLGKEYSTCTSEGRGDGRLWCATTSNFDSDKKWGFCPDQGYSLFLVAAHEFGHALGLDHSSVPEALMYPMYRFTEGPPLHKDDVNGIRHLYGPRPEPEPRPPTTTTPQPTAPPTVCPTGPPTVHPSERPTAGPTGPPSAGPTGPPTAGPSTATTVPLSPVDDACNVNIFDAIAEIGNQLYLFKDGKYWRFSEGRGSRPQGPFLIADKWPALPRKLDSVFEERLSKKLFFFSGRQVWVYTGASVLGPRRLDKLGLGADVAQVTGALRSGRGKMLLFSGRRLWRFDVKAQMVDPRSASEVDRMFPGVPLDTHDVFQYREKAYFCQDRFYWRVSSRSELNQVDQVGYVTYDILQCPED

One may read the Ki as the equilibrium dissociation constant of an inhibitor or competing ligand from its target. Turning to `O=C(NO)C1(S(=O)(=O)c2ccc(-c3cnccn3)cc2)CCOCC1` [Example 71], the Ki in assay [1] came out at 2960 nM; in assay [2] it was 5.96 nM; in assay [3], 42.8 nM; in assay [4], 224 nM.

Take `COCCN1CCC(C(=O)NO)(S(=O)(=O)c2ccc(-c3ccc(OCCN4CCCC4)cc3)cc2)CC1` [Example 72]: the Ki was > 10000 nM in assay [1], 5.81 nM in assay [2], 12.9 nM in assay [3] and 2280 nM in assay [4].

For `O=C(NO)C1(S(=O)(=O)c2ccc(-c3ccc(CCO)cc3)cc2)CCOCC1` [Example 98], the Ki in assay [1] was 990 nM; in assay [2], 0.158 nM; in assay [3] it was 3.1 nM; in assay [4] it was 52.6 nM.

Turning to `CC(C)CCc1ccc(-c2ccc(S(=O)(=O)C3(C(=O)NO)CCOCC3)cc2)nc1` [Example 99], the Ki was found to be 3080 nM in assay [1], 0.112 nM in assay [2], 0.211 nM in assay [3] and 421 nM in assay [4].

For the compound `COC(C)CCOc1ccc(-c2ccc(S(=O)(=O)C3(C(=O)NO)CCOCC3)cc2)cc1C(F)(F)F` (stereo not shown) [Example 100], the Ki in assay [1] is > 10000 nM; in assay [2], 32.5 nM; in assay [3] it was 849 nM; in assay [4], > 10000 nM.

Consider `CCCCCc1ccc(-c2ccc(S(=O)(=O)C3(C(=O)NO)CCOCC3)cc2)c(F)c1` [Example 101], for which the Ki is 9030 nM in assay [1], 0.878 nM in assay [2], 3.05 nM in assay [3] and 929 nM in assay [4].

As for `COc1ccc(-c2ccc(S(=O)(=O)C3(C(=O)NO)CCOCC3)cc2)cc1F` [Example 102], the Ki is 669 nM in assay [1], 0.078 nM in assay [2], 1.01 nM in assay [3] and 11.1 nM in assay [4].

Regarding `CC(C)Cc1ccc(-c2ccc(S(=O)(=O)C3(C(=O)NO)CCOCC3)cc2)nc1` [Example 103], the Ki in assay [1] was found to be 2320 nM; in assay [2], 0.278 nM; in assay [3], 1.38 nM; in assay [4], 342 nM.

On to `O=C(NO)C1(S(=O)(=O)c2ccc(-c3ccc(-c4ccccc4)cc3)cc2)CCOCC1` [Example 104], for which the Ki in assay [1] amounted to 6910 nM; in assay [2], 0.087 nM; in assay [3], 0.074 nM; in assay [4], 247 nM.

Take `CCCCc1nc(-c2ccc(S(=O)(=O)C3(C(=O)NO)CCOCC3)cc2)no1` [Example 105]: the Ki in assay [1] was > 10000 nM; in assay [2], 5.79 nM; in assay [3], 2.15 nM; in assay [4], 1730 nM.

For the compound `CC(C)CCOc1ccc(-c2ccc(S(=O)(=O)C3(C(=O)NO)CCOCC3)cc2)cc1` [Example 108], the Ki in assay [1] came out at 2120 nM; in assay [2], 0.497 nM; in assay [3], 2.29 nM; in assay [4], 744 nM.

As for `CCN1CCC(C(=O)NO)(S(=O)(=O)c2ccc(-c3ccc(OCCOC)c(F)c3)cc2)CC1` [Example 110], the Ki in assay [1] is > 10000 nM; in assay [2], 0.539 nM; in assay [3], 11.2 nM; in assay [4], 1850 nM.

In the case of `CCN1CCC(C(=O)NO)(S(=O)(=O)c2ccc(-c3ccc(OCCOC)cc3)cc2)CC1` [Example 111], the Ki in assay [1] stood at 7360 nM; in assay [2], 0.645 nM; in assay [3], 3.3 nM; in assay [4], 1790 nM.

On to `COCCOc1ccc(-c2ccc(S(=O)(=O)C3(C(=O)NO)CCN(C4CC4)CC3)cc2)cc1F` [Example 112], for which the Ki is 8580 nM in assay [1], 0.168 nM in assay [2], 2.21 nM in assay [3] and 681 nM in assay [4].

As for `COCCOc1ccc(-c2ccc(S(=O)(=O)C3(C(=O)NO)CCN(C4CC4)CC3)cc2)cc1` [Example 113], the Ki was 2910 nM in assay [1], 0.17 nM in assay [2], 0.732 nM in assay [3] and 499 nM in assay [4].

As for `COCCOc1ccc(-c2ccc(S(=O)(=O)C3(C(=O)NO)CCN(CCOC)CC3)cc2)cc1F` [Example 114], the Ki in assay [1] was determined as 6550 nM; in assay [2], 0.217 nM; in assay [3] it was 2.77 nM; in assay [4], 585 nM.

Consider `COCCOc1ccc(-c2ccc(S(=O)(=O)C3(C(=O)NO)CCN(CCOC)CC3)cc2)cc1` [Example 115], for which the Ki in assay [1] turned out to be 3370 nM; in assay [2] it was 0.276 nM; in assay [3], 1.22 nM; in assay [4] it was 530 nM.

Take `CCOCCOc1ccc(-c2ccc(S(=O)(=O)C3(C(=O)NO)CCN(CC)CC3)cc2)cc1` [Example 116]: the Ki in assay [1] turned out to be 8940 nM; in assay [2], 0.514 nM; in assay [3] it was 9.39 nM; in assay [4], 2930 nM.

`CCOCCOc1ccc(-c2ccc(S(=O)(=O)C3(C(=O)NO)CCN(CCOC)CC3)cc2)cc1` [Example 117]: the Ki in assay [1] stood at 4900 nM; in assay [2], 0.208 nM; in assay [3], 3.93 nM; in assay [4] it was 1110 nM.
